# Assay results reported in patent US5834459A, “Alkyl-substituted compounds having dopamine receptor affinity” (Allelix Biopharmaceuticals Inc., priority 1996, dated 1998).
# What was measured:
# [1] = molecular target: T1, human D4 receptor (D4.2 sub-type) (Homo sapiens, UniProt P21917, DEL265-296); assay: Receptor Binding Assay: displacement of 3H-spiperone, D4 receptor; details: for Ki: 3H-spiperone displacement, HEK 298 cells transfected with human D4.2, read-out: Ki (D4 affinity)
# T1 construct: expressed in transfected cells; cell homogenate
# T1 sequence (P21917 with tags, fused parts or gaps DEL265-296): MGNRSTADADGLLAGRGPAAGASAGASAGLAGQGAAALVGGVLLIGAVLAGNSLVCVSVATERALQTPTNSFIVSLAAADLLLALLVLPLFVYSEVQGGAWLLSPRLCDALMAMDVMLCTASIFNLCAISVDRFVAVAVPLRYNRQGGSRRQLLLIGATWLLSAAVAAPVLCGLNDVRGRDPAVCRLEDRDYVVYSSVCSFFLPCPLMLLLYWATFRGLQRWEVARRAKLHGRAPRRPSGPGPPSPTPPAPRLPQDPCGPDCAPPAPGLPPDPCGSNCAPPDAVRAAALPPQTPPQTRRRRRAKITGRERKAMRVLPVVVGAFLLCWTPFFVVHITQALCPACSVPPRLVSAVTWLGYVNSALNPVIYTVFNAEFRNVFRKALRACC
# Experimental: (§1) The potency of the test compound to reduce ^3 H-spiperone binding directly correlated to its binding affinity for the receptor.
# The cells were then centrifuged in a Sorval centrifuge for 10 minutes, 5000 rpm (GS3 rotor) and the pellets quickly frozen in liquid nitrogen and stored at -80° C. until used in binding assay. When used in the assay, cells were thawed on ice for 20 minutes and then 10 mL of incubation buffer (50 mM Tris, 1 mM EDTA, 4 mM MgCl2, 5 mM KCl, 1.5 mM CaCl2, 120 mM NaCl, pH7.4) was added. […] Concentration of receptor protein was determined using the Pierce BCA assay.
# (§2) The tubes were vortexed and incubated at room temperature for 90 minutes. The binding reaction was stopped by filtering using a Brandell Cell Harvester. The samples were filtered under vacuum over glass fibre filters (Whatman GF/B) presoaked for 2 hours in 0.3% polyethylenimine (PEI) in 50 mM Tris buffer (pH7.4). The filters were then washed 3 times with 5 mL ice cold 50 mM Tris buffer (pH7.4). Individual filter disks were put in scintillation vials (Biovials, Bechman). Ready Protein Plus liquid scintillant (5 mL, Beckman) was added and the vials counted by liquid scintillation spectrophotometry (Beckman LSC 6500) after equilibrating for three hours at room temperature to determine total binding (BT).
# The tubes were vortexed and incubated at room temperature for 90 minutes at which time the binding reaction was stopped by filtering. The filters were washed and counted using the same procedure as in the total binding assay described above to give the non-specific binding value (NSB).
# (§3) The incubation was started by the addition to 12×75 mm polypropylene tubes 500 μl (50 μg protein) membrane homogenate to a solution of 400 μl incubation buffer, 100 μl (0.25 final conc.) ^3 H-spiperone (90 Ci/mmol, Amersham, diluted in borosilicate glass vial to) and […] of test compound that was prepared from 1 mM stock dissolved in DMSO and stored at -20° C. in polypropylene cryogenic storage vials until dilution in incubation buffer in borosilicate glass vials. The tubes were vortexed and incubated at room temperature for 90 minutes at which time the binding reaction was stopped by filtering. The filters were washed and counted using the same procedure as in the total binding assay described above to give the displacement binding value (BD).
# (§4) IC50 was determined from an inhibition response curve, logit-log plot of %B/BO vs concentration of test compound.
# (§5) Ki was calculated by the Cheng and Prustoff transformation: […]
# (§6) where [L] is the concentration of ^3 H-spiperone used in the assay and KD is the dissociation constant of ^3 H-spiperone determined independently under the same binding conditions.
# [2] = molecular target: human D2 receptor (short isoform) (Homo sapiens, UniProt P14416); assay: Receptor Binding Assay: displacement of 3H-spiperone, D2 receptor, for D2/D4 selectivity; details: for D2/D4 (selectivity): ratio D2/D4, GH4 C1 cells with human D2 short vs HEK 298 cells with human D4.2, 3H-spiperone
# Experimental: as §1
# GH4 C1 (rat pituitary) cells stably transfected with the human D2 receptor (short isoform) were grown in CO2 independent media in roller bottles (1500 cm^2) for 10 days. 100 μM ZnSO4 was added to the cells (the D2 promoter being zinc inducible). After 16 hours, fresh media was added to allow the cells to recover for 24 hours. The cells were harvested using versene and then centrifuged in a Sorval centrifuge for 10 minutes, at 5000 rpm (GS3 rotor). Pellets were quickly frozen in liquid nitrogen and stored at -80° C. until used in the binding assays. When used in the assay, cells were thawed on ice for 20 minutes. […] The receptor protein concentration was determined using the Pierce BCA assay.
# as §2
# This assay employed the same procedures as the non-specific binding assay for D4 with the exception that 2 μM (final conc.) of (-) sulpiride (Research Chemicals Inc.) was used in place of dopamine.
# as §3, §4, §5, §6
# D4 receptor = details: background; both products approximately; cited from earlier work
# D2 receptor = details: background; both products; cited from earlier work
# Sequence of human D2 receptor (short isoform) (P14416 with tags, fused parts or gaps DEL242-270): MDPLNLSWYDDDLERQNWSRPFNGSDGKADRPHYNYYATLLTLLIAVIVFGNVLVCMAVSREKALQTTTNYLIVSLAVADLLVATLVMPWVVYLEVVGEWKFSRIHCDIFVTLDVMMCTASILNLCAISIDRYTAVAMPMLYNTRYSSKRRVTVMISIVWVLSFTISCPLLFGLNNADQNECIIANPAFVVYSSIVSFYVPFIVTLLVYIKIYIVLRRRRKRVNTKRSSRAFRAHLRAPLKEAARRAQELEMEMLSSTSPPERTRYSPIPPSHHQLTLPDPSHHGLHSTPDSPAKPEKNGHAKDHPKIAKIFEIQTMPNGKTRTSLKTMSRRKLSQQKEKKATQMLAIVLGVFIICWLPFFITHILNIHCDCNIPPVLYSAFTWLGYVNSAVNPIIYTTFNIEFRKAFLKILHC
Structure (SMILES),Ki [1],D2/D4 (selectivity) [2],D4 affinity compared with clozapine (in words) [1],D4 selectivity relative to the D2 receptor (in words) [2],D4 selectivity compared with clozapine (in words) [2],Ki (D4 receptor),preference for binding the D4 receptor relative to the D2 receptor (D2 receptor)
"CCCCCCN1CCN(C2=Nc3ccccc3Oc3ccccc32)CC1 [11-(4-hexyl-1-piperazinyl)dibenz[b,f][1,4]oxazepine]",22 nM,20.0,better D4 affinity and selectivity than clozapine,bind to the D4 receptor selectively relative to the D2 receptor,better D4 affinity and selectivity than clozapine,–,–
"CCCCCCCCN1CCN(C2=Nc3ccccc3Oc3ccccc32)CC1 [11-(4-octyl-1-piperazinyl)dibenz[b,f][1,4]oxazepine]",–,–,–,bind to the D4 receptor selectively relative to the D2 receptor,–,–,–
CN1CCN(C2=Nc3cc(Cl)ccc3Oc3ccccc32)CC1 [isoloxapine],–,–,–,–,–,~20 nM,about 10 fold
"CCCCCCCN1CCN(C2=Nc3ccccc3Oc3ccccc32)CC1 [11-(4-heptyl-1-piperazinyl)dibenz[b,f][1,4]oxazepine]",–,–,–,bind to the D4 receptor selectively relative to the D2 receptor,–,–,–

# The next lines start with results.
Ki [1],D2/D4 (selectivity) [2],Structure (SMILES),D4 affinity compared with clozapine (in words) [1],D4 selectivity relative to the D2 receptor (in words) [2],D4 selectivity compared with clozapine (in words) [2],Ki (D4 receptor),preference for binding the D4 receptor relative to the D2 receptor (D2 receptor)
109 nM,3.9,"CCCCCCCCCN1CCN(C2=Nc3ccccc3Oc3ccccc32)CC1 [11-(4-nonyl-1-piperazinyl)dibenz[b,f][1,4]oxazepine]",–,bind to the D4 receptor selectively relative to the D2 receptor,–,–,–
229 nM,3.9,"CCCCCCCCCN1CCN(C2=Nc3ccccc3Oc3c(Cl)cccc32)CC1 [4-chloro-11-(4-nonyl-1-piperazinyl)dibenz[b,f][1,4]oxazepine]",–,bind to the D4 receptor selectively relative to the D2 receptor,better D4 selectivity than clozapine,–,–
32 nM,31.8,"CCCCCCN1CCN(C2=Nc3ccccc3Oc3c(Cl)cccc32)CC1 [4-chloro-11-(4-hexyl-1-piperazinyl)dibenz[b,f][1,4]oxazepine]",–,bind to the D4 receptor selectively relative to the D2 receptor,better D4 selectivity than clozapine,–,–
18 nM,30.0,"CCCCCCCCCN1CCN(C2=Nc3cc(Cl)ccc3Oc3ccccc32)CC1 [8-chloro-11-(4-nonyl-1-piperazinyl)dibenz[b,f][1,4]oxazepine]",better D4 affinity and selectivity than clozapine,bind to the D4 receptor selectively relative to the D2 receptor,better D4 affinity and selectivity than clozapine,–,–
